In US9713613B2, “Methods and compositions for the treatment of cancer and related hyperproliferative disorders” (priority 2007, dated 2017):

What was measured:
endogenous SREBPs = test: Luciferase reporter assay (pSRE-Luc, normalized by β-gal) in HEK293 cells; format: cell-based, human; parameters: Luc/Gal: dose or concentration left out as unconfirmed
Procedure: On day 0, HEK293 cells were plated out in triplicate at a density of 5×10^3/well onto a 96-well plate in a Dulbecco's modified Eagle's medium with 10% fetal bovine serum, 100 units/mL penicillin, and 100 μg/mL streptomycin sulfate. On day 2, the cells were transiently co-transfected with the following plasmids by using Lipofectamine reagent (Invitrogen): 0.4 μg/well pSRE-Luc (an SRE-1-driven luciferase reporter construct; Hua et al., 1995 J Biol Chem 270, 29422-7), and 0.1 μg/well a b-gal reporter in which the expression of β-gal is controlled by an actin promoter in a final volume of […]. After incubation for 5 hrs at 37° C., the cells were washed with phosphate-buffered saline and then incubated in 100 μl of Dulbecco's modified Eagle's medium with 10% lipid-depleted serum, […] penicillin, and 100 μg/mL streptomycin sulfate in the absence or presence of fatostatin A. After 20 hrs of incubation, the cells in each well were lysed with 20 μL of 1× Reporter Lysis Buffer (Promega), and aliquots were used for measurement of luciferase (10 μL) and β-galactosidase (10 μL) activities. For luciferase assay, photon production was detected as counts per second in a Wallac 1420 ARVOsx multilabel counter (PerkinElmer). For β-galactosidase assays, hydrolysis of O-nitrophenyl-β-D-galactosidase was measured after incubation for 0.5 h at 37° C. by a microplate reader at the wave length of 405 nm (Tecan). The luciferase activity (counts per second) was normalized by the activity of β-galactosidase (OD units). For overexpression of the N-terminal matured form of SREBP-1c, pCMV-SREBP-1c (1-436) was co-transfected with pSRE-Luc. pSRE-Luc and pCMV-SREBP-1c (1-436) were provided by J. L. Goldstein (University of Texas Southwestern Medical Center). […]

3T3-L1 cells = test: adipogenesis assay (formation of oil droplets); format: cell-based, mouse; parameters: key: +: The analogues that completely inhibited the formation of oil droplets in cells were scored to be adipogenesis-inhibiting analogues; conditions: formation of oil droplets in cells
Procedure: The adipogenesis assay was performed as described (Choi et al., 2003).

[1] = entries 1-18 (FIG. 15), none = 9.4426
[2] = entries 1, 19-34 (FIG. 16), None = 15.0759
[3] = entries 1, 35-39 (FIG. 17), None = 18
[4] = entries 1, 40-44 (FIG. 17), None = 8.2181

Structure (SMILES) | Luc/Gal (endogenous SREBPs; [1]) | Luc/Gal (endogenous SREBPs; [2]) | also measured
CCCc1cc(-c2nc(-c3ccc(Br)cc3)cs2)ccn1 [Compound 2, 4-(4-(4-bromophenyl)thiazol-2-yl)-2-propylpyridine] | 4.5130 |  | 
CCCc1cc(-c2nc(-c3ccccc3)cs2)ccn1 [Compound 3, 4-(4-phenylthiazol-2-yl)-2-propylpyridine] | 7.4643 |  | 
CCCc1cc(-c2nc(-c3ccc(Cl)cc3)cs2)ccn1 [Compound 4, 4-(4-(4-chlorophenyl)thiazol-2-yl)-2-propylpyridine] | 6.3808 |  | 
CCc1ccc(-c2csc(-c3ccncc3)n2)cc1 [Compound 5, 4-(4-(4-ethylphenyl)thiazol-2-yl)pyridine] | 7.6190 |  | 
Cc1ccc(-c2csc(-c3ccncc3)n2)cc1 [Compound 6, 4-(4-p-tolylthiazol-2-yl)pyridine] | 13.4689 |  | 
COc1ccc(-c2csc(-c3ccncc3)n2)cc1 [Compound 7, 4-(4-(4-methoxyphenyl)thiazol-2-yl)pyridine] | 18.3174 |  | 
CCCc1cc(-c2nc(-c3ccc(OC(=O)c4ccccc4)cc3)cs2)ccn1 [Compound 8, 4-(2-(2-propylpyridin-4-yl)thiazol-4-yl)phenylbenzoate] | 7.7585 |  | Inhibition of adipogenesis (3T3-L1 cells): +
CCCc1cc(-c2nc(-c3ccc(O)cc3)cs2)ccn1 [Compound 9, 4-(2-(2-propylpyridin-4-yl)thiazol-4-yl)phenol] | 14.5234 |  | Inhibition of adipogenesis (3T3-L1 cells): +
CCCc1cc(-c2nc(-c3ccc(OCC(=O)OC)cc3)cs2)ccn1 [Compound 10, methyl 2-(4-(2-(2-propylpyridin-4-yl)thiazol-4-yl)phenoxy)acetate] | 10.7717 |  | 
COc1ccc(-c2nc(-c3ccc(Cl)cc3)cs2)cc1OC [Compound 12, 4-(4-chlorophenyl)-2-(3,4-dimethoxyphenyl)thiazole] | 5.9214 |  | 
CCCc1cc(-c2nc(-c3ccc(Cl)c(Cl)c3)cs2)ccn1 [Compound 13, 4-(4-(3,4-dichlorophenyl)thiazol-2-yl)-2-propylpyridine] | 5.2391 |  | 
CCCc1cc(-c2nc(-c3ccc(F)cc3)cs2)ccn1 [Compound 14, 4-(4-(4-fluorophenyl)thiazol-2-yl)-2-propylpyridine] | 9.6605 |  | 
CCCc1cc(-c2nc(-c3ccc(F)cc3F)cs2)ccn1 [Compound 15, 4-(4-(2,4-difluorophenyl)thiazol-2-yl)-2-propylpyridine] | 10.8383 |  | 
CCCc1cc(-c2nc(-c3ccc(N)cc3)cs2)ccn1 [Compound 16, 4-(2-(2-propylpyridin-4-yl)thiazol-4-yl)benzenamine] | 10.3338 |  | Inhibition of adipogenesis (3T3-L1 cells): +
CCCc1cc(-c2nc(-c3ccc(NC(C)=O)cc3)cs2)ccn1 [Compound 18, N-(4-(2-(2-propylpyridin-4-yl)thiazol-4-yl)phenyl)acetamide] | 11.7685 |  | Inhibition of adipogenesis (3T3-L1 cells): +
CCCc1cc(-c2nc(-c3ccc(NCc4ccccc4)cc3)cs2)ccn1 [Compound 20, N-benzyl-4-(2-(2-propylpyridin-4-yl)thiazol-4-yl)benzenamine] |  | 5.6748 | Inhibition of adipogenesis (3T3-L1 cells): +
CCCc1cc(-c2nc(-c3ccc(NCC4CC4)cc3)cs2)ccn1 [Compound 21, N-(cyclopropylmethyl)-4-(2-(2-propylpyridin-4-yl)thiazol-4-yl)benzenamine] |  | 6.4378 | Inhibition of adipogenesis (3T3-L1 cells): +
CCCc1cc(-c2nc(-c3ccc(Br)cc3)c(C(=O)O)s2)ccn1 [Compound 22, 4-(4-bromophenyl)-2-(2-propylpyridin-4-yl)thiazole-5-carboxylic acid] |  | 21.5911 | 
CCCc1cc(-c2nc(-c3ccc(Br)cc3)c(C(=O)OC)s2)ccn1 [Compound 23, methyl 4-(4-bromophenyl)-2-(2-propylpyridin-4-yl)thiazole-5-carboxylate] |  | 8.1137 | Inhibition of adipogenesis (3T3-L1 cells): +
CCCc1cc(-c2nc(-c3ccc(OC)cc3)cs2)ccn1 [Compound 24, 4-(4-(4-methoxyphenyl)thiazol-2-yl)-2-propylpyridine] |  | 11.0367 | 

Structure (SMILES) | Luc/Gal (endogenous SREBPs; [1]) | Luc/Gal (endogenous SREBPs; [2]) | also measured
CCCc1cc(-c2nc(-c3cccc(OC)c3)cs2)ccn1 [Compound 25, 4-(4-(3-methoxyphenyl)thiazol-2-yl)-2-propylpyridine] |  | 7.8536 | 
CCCc1cc(-c2nc(-c3ccccc3OC)cs2)ccn1 [Compound 26, 4-(4-(2-methoxyphenyl)thiazol-2-yl)-2-propylpyridine] |  | 8.3046 | Inhibition of adipogenesis (3T3-L1 cells): +
Cc1ccc(-c2csc(-c3ccccc3)n2)cc1 [Compound 27, 2-phenyl-4-p-tolylthiazole] |  | 13.8222 | 
CCCc1cc(-c2nc(-c3cccc(O)c3)cs2)ccn1 [Compound 28, 3-(2-(2-propylpyridin-4-yl)thiazol-4-yl)phenol] |  | 12.7791 | 
CCCc1cc(-c2nc(-c3ccccc3O)cs2)ccn1 [Compound 29, 2-(2-(2-propylpyridin-4-yl)thiazol-4-yl)phenol] |  | 8.2379 | 
CCCc1cc(-c2nc(-c3ccc(Br)cc3)c(C(=O)NC(C)C)s2)ccn1 [Compound 30, 4-(4-bromophenyl)-N-isopropyl-2-(2-propylpyridin-4-yl)thiazole-5-carboxamide] |  | 16.0226 | 
Clc1ccc(-c2csc(-c3ccncc3)n2)cc1 [Compound 31, 4-(4-(4-chlorophenyl)thiazol-2-yl)pyridine] |  | 16.9971 | 
CCc1cc(-c2nc(-c3ccc(Cl)cc3)cs2)ccn1 [Compound 32, 4-(4-(4-chlorophenyl)thiazol-2-yl)-2-ethylpyridine] |  | 9.5798 | 
Clc1ccc(-c2csc(-c3ccccc3)n2)cc1 [Compound 33, 4-(4-chlorophenyl)-2-phenylthiazole] |  | 17.8175 | 
CCCc1cc(-c2nc(-c3cccs3)cs2)ccn1 [Compound 34, 2-propyl-4-(4-(thiophen-2-yl)thiazol-2-yl)pyridine] |  | 12.1593 | Inhibition of adipogenesis (3T3-L1 cells): +
CCCc1cc(-c2ccc(-c3ccc(C)cc3)cc2)ccn1 [Compound 35] |  |  | Luc/Gal (endogenous SREBPs; [3]): 11.36; Inhibition of adipogenesis (3T3-L1 cells): +
CCCc1cc(-c2nc(-c3ccc(C)cc3)c(C(=O)O)s2)ccn1 [Compound 36, 2-(2-propylpyridin-4-yl)-4-p-tolylthiazole-5-carboxylic acid] |  |  | Luc/Gal (endogenous SREBPs; [3]): 18.99
CCc1cc(-c2nc(-c3ccc(C)cc3)cs2)ccn1 [Compound 37, 2-ethyl-4-(4-p-tolylthiazol-2-yl)pyridine] |  |  | Luc/Gal (endogenous SREBPs; [3]): 9.87
CCCc1cc(-c2nc(-c3ccccc3)c(C(=O)O)s2)ccn1 [Compound 38, 4-phenyl-2-(2-propylpyridin-4-yl)thiazole-5-carboxylic acid] |  |  | Luc/Gal (endogenous SREBPs; [3]): 22.66
CCCc1cc(-c2nc(-c3ccc(C)cc3)c(C(=O)OC)s2)ccn1 [Compound 39, methyl 2-(2-propylpyridin-4-yl)-4-p-tolylthiazole-5-carboxylate] |  |  | Luc/Gal (endogenous SREBPs; [3]): 14.93
CCCc1cc(-c2nc(-c3ccc(NC(=O)OC(C)(C)C)cc3)cs2)ccn1 [Compound 40, tert-butyl 4-(2-(2-propylpyridin-4-yl)thiazol-4-yl)phenylcarbamate] |  |  | Luc/Gal (endogenous SREBPs; [4]): 2.4390
CCCc1cc(-c2nc(-c3ccc(NC4CCCCC4)cc3)cs2)ccn1 [Compound 41, N-cyclohexyl-4-(2-(2-propylpyridin-4-yl)thiazol-4-yl)benzenamine] |  |  | Luc/Gal (endogenous SREBPs; [4]): 6.5229
CCCc1cc(-c2nc(-c3ccc(NS(=O)(=O)c4ccc(C)cc4)cc3)cs2)ccn1 [Compound 42, 4-(2-(2-propylpyridin-4-yl)thiazol-4-yl)-N-tosylbenzenamine] |  |  | Luc/Gal (endogenous SREBPs; [4]): 3.3957
CCCc1cc(-c2nc(-c3ccc(NS(=O)(=O)c4cccc5cccnc45)cc3)cs2)ccn1 [Compound 43, N-(4-(2-(2-propylpyridin-4-yl)thiazol-4-yl)phenyl)-8-quinolinesulfonamide] |  |  | Luc/Gal (endogenous SREBPs; [4]): 2.8506
CCCc1cc(-c2nc(-c3ccc(NS(=O)(=O)c4cccs4)cc3)cs2)ccn1 [Compound 44, N-(4-(2-(2-propylpyridin-4-yl)thiazol-4-yl)phenyl)-2-thiophenesulfonamide] |  |  | Luc/Gal (endogenous SREBPs; [4]): 1.8538
